These results are taken from patent US5288723A, “A composition and a method of using veratridine and epinephrine as a local anesthetic” (priority 1991, dated 1994).

Like-named read-outs stand apart in the source and are kept apart here.

In series [1] the test system is B-fibers of rabbit vagus nerve. The series is described as follows: Sucrose-gap recording in the veratrinized region, B-fibers. Also noted: species or system New Zealand white rabbit. To be noted: 0.5 μm VTD. As to the method:
(§1) Adult male New Zealand white rabbits (3±0.5 kg) were pretreated intramuscularly with a mixture of ketamine (200 mg), xylazine (20 mg) and atropine (0.4 mg) for sedation. Ten minutes after this treatment, the animals were anesthetized with diethyl ether. After cessation of respiration, a longitudinal skin incision was made, and the cervical portion of both vagus nerves was dissected. The vagus nerves were temporarily stored at room temperature (22° C.) in a beaker containing modified HEPES Liley (HL) solution stirred constantly by aeration with a mixture of 95% oxygen and 5% carbon dioxide. […]
(§2) VTD free base (no. V-5754, lot 58F-7828, Sigma, St. Louis, Mo.) was stored in a desiccator below 0° C. and was used to prepare a 2 mM stock solution in dimethyl sulfoxide [DMSO], Fisher Scientific, lot 861316), which also was stored at below 0° C. […] The maximum equivalent content of DMSO is 0.5%, and in three control experiments we detected no change in electrophysiologic behavior with 1% DMSO.
(§3) Nerves were desheathed and mounted in an acrylic sucrose-gap chamber (FIG. 2C). […] In contrast to the extracellular chamber described above, which measured APc in a drug-free segment after they had propagated through a VTD solution, the sucrose gap measured the behavior of the nerve membrane directly exposed to drug, the "veratrinized" nerve. […]

The subject of series [2] is B-fibers of rabbit vagus nerve. As to the kind of experiment: Extracellular recording of compound action potentials (APc), desheathed vagus nerve, B-fibers. To be noted: for inhibition at 0.5 µM / activity at 0.5 µM: Oryctolagus cuniculus, 0.5 μM VTD; for inhibition at 0.5 µM: 70 min, 50 Hz, mean ± SEM; for activity at 0.5 µM: read-out: Amplitude of single APc elevation relative to amplitude at beginning of VTD exposure. Also noted: species or system New Zealand white rabbit. As to the method: Adult male New Zealand white rabbits (3±0.5 kg) were pretreated intramuscularly with a mixture of ketamine (200 mg), xylazine (20 mg) and atropine (0.4 mg) for sedation. Ten minutes after this treatment, the animals were anesthetized with diethyl ether. After cessation of respiration, a longitudinal skin incision was made, and the cervical portion of both vagus nerves was dissected. The vagus nerves were temporarily stored at room temperature (22° C.) in a beaker containing modified HEPES Liley (HL) solution stirred constantly by aeration with a mixture of 95% oxygen and 5% carbon dioxide.
The modified HL solution used for bathing the nerve and subsequent drug perfusion consisted of (in mM): NaCl, 118.0; KCl, 5.0; CaCl2 2H2 0, 2.0; MgCl2 6H2 0, 1.0; α-D(+)-glucose, 11.0; NaHC03, 25.0; and N-2-hydroxy-ethylpiperazine-N-2-ethanesulfonic acid (HEPES) buffer, 5.0 mM. The pH was adjusted to 7.4±0.05 by addition of 1 N NaOH. The perfusion solution was bubbled with a gas mixture of 95% oxygen and 5% carbon dioxide at a vigorous rate just before flowing onto the nerve. The pH was stabilized by the HEPES buffer and maintained at 7.4.
VTD free base (no. V-5754, lot 58F-7828, Sigma, St. Louis, Mo.) was stored in a desiccator below 0° C. and was used to prepare a 2 mM stock solution in dimethyl sulfoxide [DMSO], Fisher Scientific, lot 861316), which also was stored at below 0° C. VTD, a steroidal alkaloid (FIG. 2A) that is produced by certain lilies, has a solubility limited to approximately 10^-3 M in aqueous slat solutions [Kupchan and By, "The Veratrum Group," in Alkaloids, Vol. 10, Manske, R.H.F. (ed.), New York, Academic Press (1968), pp. 193-285]. The stock VTD solution was diluted to final concentrations of 0.2-10 μM by the addition of HL. The maximum equivalent content of DMSO is 0.5%, and in three control experiments we detected no change in electrophysiologic behavior with 1% DMSO.
The nerves were cleaned and desheathed by microdissection before mounting in an airtight chamber (FIG. 2B) [Gissen et al., Anesthesiology 53:467-474 (1980)]. Petroleum jelly (White Petrolatum, Denison Laboratories) seals separated a central, 11-mm length of the nerve from the lateral pools, used for stimulating and recording with electrodes made of platinum wire. The central section of the chamber (volume 0.25 ml) was perfused with HL solution at 0.5 ml.min.^-1. The lateral pools containing the moistened ends of the nerves adsorbed to the electrodes were filled with paraffin oil. The APc s were propagated over 21 mm, from the stimulating to the recording electrodes, with the proximal recording electrodc located 4.5 mm from the edge of the central, drug exposure chamber. Thus, measured APc s were conducted in nerve exposed to drug for half of the conduction pathway, and had been conducting through drug-free medium over a distance containing at least two or three nodes of Ranvier (in the fastest-conducting fibers), before reaching the recording electrodes.
The signal from the nerve was amplified 50 times (model AK 475 operational amplifier, Metametrics, Carlisle, Mass.) and passed to the oscilloscope preamplifiers (model 5A 22N, Tektronix). The preparation was not considered acceptable unless the APc signals from the nerve exceeded 1.5 mV for A-fibers, 0.5 mV for B-fibers, and 0.3 mV for C-fibers.
Each nerve was exposed to only one VTD concentration, and each concentration was tested in four or five separate nerves, except in tie sheathed nerves, for which only two nerves were used. The temperature was 20°-22° C.
The standard protocol used for testing the action of VTD was to record the APc elevations in control HL solution for 30-60 min. before adding VTD; for 60-75 min. during VTD application; and for 60-75 min. after replacement with VTD-free HL. […]

For series [3] the following is noted: on average; cited from earlier work.
Series [4] relates to angiotensin II receptors. To be noted: reported by Ball et al.; cited from earlier work.
Series [5] relates to Na^+ channel of the mammalian brain. To be noted: purified polypeptides in phospholipid vesicles; cited from earlier work.
The subject of series [6] is A-fibers of rabbit vagus nerve. The series is described as follows: Sucrose-gap recording in the veratrinized region, A-fibers. Details: species or system New Zealand white rabbit. As to the method: as §1, §2, §3
Series [7] concerns rat sciatic nerve. The series is described as follows: Motor block of rat sciatic nerve in vivo (toe curling and/or foot dragging). Also noted: species or system Male Sprague-Dawley rats.

With `COc1ccc(C(=O)OC2CCC3(C)C4CCC5C6(O)CC(O)C7(O)C(CN8CC(C)CCC8C7(C)O)C6(O)CC53OC24O)cc1OC` (stereo not drawn) [VTD, veratridine], in series [1], the “B-fiber elevation after addition of VTD” value was “unchanged”. For the same compound, the “Reversal of use-dependent effects on B-fibers by washing” value in series [2] (75 min. of washing with drug-free HL) is reported as “not abolished completely”. In addition, the “Single-stimulus APc after VTD compared with no-VTD controls” value in series [2] (B-fibers, 0.5 μM, 60 min. in VTD, P>0.05) is recorded as “no significant difference”. Also, the “Reversal of use-dependent depression by washing” value in series [2] (B-fibers, VTD-free HL wash) is recorded as “did not reverse”. Further, the inhibition at 0.5 µM in series [2] (B-fibers, after 70 min. in VTD, P < 0.001 vs control, read-out: Percent inhibition of the tenth APc in a train compared to the first, VTD) was 55 ± 2.8%; in series [2] (B-fibers, after 70 min. wash, read-out: Percent inhibition of the tenth APc in a train compared to the first, HL (Wash)), 52.6 ± 3.7%. Moreover, the activity at 0.5 µM stood at 105 ± 23% in series [2] (B-fibers, during VTD exposure) and 108 ± 31% in series [2] (B-fibers, wash period). In addition, in series [3], the “Fraction of drug molecules ionized” value is given as “more than 90%”. In addition, the “Inhibition of angiotensin II receptors” value in series [4] is listed as “selective inhibitor of angiotensin II receptors”. For the same compound, the “Sodium flux into vesicles in response” value in series [5] is “sodium flux into these vesicles occurs”. Further, the “A-fiber deflection between beginning and end of the train” value in series [6] (0.2 μM VTD, 0.5 Hz stimulation) is listed as “unchanged”. Further, in series [6] (0.5 μm VTD), the “A-fiber elevation after addition of VTD” value is given as “unchanged”. Moreover, the “Duration of motor block (summary)” value in series [7] (VTD alone, 0.2-0.7 mM, approximately) was in the range of 100 to 300 min. The “fraction block, MOTOR” value is reported as 8/10 in series [7] ([VTD] 0.2 mM, 0.1 ml) and 5/10 in series [7] ([VTD] 0.7 mM, 0.1 ml). The “onset, MOTOR” value in series [7] ([VTD] 0.2 mM, 0.1 ml, mean ± SEM) stood at 13 ± 2 min. In addition, the “Duration of nerve block compared with bupivacaine and lidocaine” value in series [7] (rat sciatic nerve) is “longer duration than both”.
